The values that follow are results of earlier work, collected in patent publication US20070225217A1, “Methods, compositions, and kits for the treatment of medical conditions” (CombinatoRx, Incorporated, priority 2005, published 2007).

As for `CO[C@H]1C[C@@H]2CC[C@@H](C)[C@@](O)(O2)C(=O)C(=O)N2CCCC[C@H]2C(=O)O[C@H]([C@H](C)C[C@@H]2CC[C@@H](O)[C@H](OC)C2)CC(=O)[C@H](C)/C=C(\C)[C@@H](O)[C@@H](OC)C(=O)[C@H](C)C[C@H](C)/C=C/C=C/C=C/1C` [Rapamycin], the “absorption after oral administration” value is “absorbed rapidly and completely”.
